Source: paper PMC8878324, “Evaluation of New Antimicrobial Agents Based on tris(1H-Indol-3-yl)methylium Salts: Activity, Toxicity, Suppression of Experimental Sepsis in Mice” (Pharmaceuticals, 2022)
In brackets after ≈: the same amount, converted by molar mass.

Assays:
Type in all cases: cell-based
[1] = test system: Candida albicans ATCC 14053; test: MIC by broth microdilution (RPMI 1640); settings: ATCC14053
Method: (§1) We have tested the antimicrobial activity in vitro of over 100 tris(indolyl)methane derivatives against 16 strains of Gram-positive, Gram-negative bacteria and fungi including either sensitive or drug-resistant strains from ATCC, as well as resistant clinical isolates from the culture collection of the Laboratory for Control of Hospital Infections (Sechenov University, Moscow, Russia). The minimum inhibitory concentrations (MICs) were determined by the microdilution method in a cation-adjusted Müller–Hinton medium for bacteria and in a liquid culture medium RPMI 1640 with L-glutamine without sodium bicarbonate for fungi in accordance with the requirements of the Institute of Clinical and Laboratory Standards (CLSI/NCCLS). […] As a rule, their activity against Gram-negative bacteria was usually not that high. […] For comparison, the antimicrobial activity of prototype 4 is shown. The antibacterial antibiotic levofloxacin and the antifungal amphotericin B were used as reference drugs (Table 1).
(§2) The synthesis of compounds and the scheme of their preparation and purification, as well as physicochemical characteristics, were described earlier. To evaluate the biological activity in vitro, the compounds were dissolved in DMSO at a concentration of 2.0–6.4 mg/mL, followed by preparation of two-fold dilutions in the same solvent, if necessary. The solutions were further diluted in an aqueous medium for the final concentration of DMSO not to exceed 1%, and the concentration of the compounds ranged from 64.0 to 0.13 μg/mL. To study compounds in vivo, solutions for intravenous administration in 5% glucose solution were prepared. Solutions were sterilized by filtration through 0.22 µm filters (Millipore, Burlington, MA, USA).
(§3) Strains of Gram-positive, Gram-negative bacteria and fungi including sensitive or drug-resistant strains from ATCC, as well as resistant clinical isolates from the culture collection of the Laboratory for Control of Hospital Infections (Sechenov University, Moscow, Russia), were used. Clinical isolates of Gram-positive bacteria Staphylococcus aureus 5 (MRSA), Staphylococcus aureus 10, Staphylococcus aureus 100KC (MRSA), Staphylococcus epidermidis 533, Staphylococcus haemoliticus 585 and Enterococcus faecium 569, as well as collection cultures of Gram-positive bacteria Staphylococcus aureus ATCC 700699, Staphylococcus aureus ATCC 25923, Staphylococcus aureus ATCC 3798 and collection cultures of Gram-negative bacteria Escherichia coli ATCC 25922, Klebsiella pneumoniae ATCC 13883, Proteus vulgaris ATCC 13315, Salmonella cholerasuis ATCC 14028, Pseudomonas aeruginosa ATCC 27853 and collection cultures of the yeast Candida albicans ATCC 14053 and the fungi Aspergillus niger ATCC 16404 were used. To grow the microorganisms, we used Trypticase Soy Agar (TSA, Sigma-Aldrich Co., Burlington, MA, USA). Trypticase Soy Agar, BBL, was used for cultivation of Staphylococcus spp. and E. coli. For cultivation of Enterococcus spp. and P. aeruginosa we used a ready-made dry medium Columbia Agar Base, BBL. The media were sterilized by autoclaving at 121 °C for 15 min. Yeast culture C. albicans was grown on Sabouraud agar (peptone—10 g, glucose—40 g, agar—20 g, distilled water—1 L, pH 6.0), and filamentous fungi A. niger was grown on potato–glucose agar (potatoes—200 g, glucose—20 g, agar—15 g, distilled water—1 L, pH 5.5–6.0).
(§4) To determine the antibacterial effect, a liquid Müller–Hinton medium (Becton, Dickinson and Company, Cockeysville, MD, USA) was used; to determine the effect of compounds on fungi we used RPMI 1640 medium with L-glutamine, without sodium bicarbonate, which was prepared from a dry medium (ICN Biomedicals Inc., Costa Mesa, CA, USA) by dilution in distilled water, subsequent buffering with 0.165 M of morpholinepropanesulfonic acid (MOPS, Acros Organics B.V.B.A., Morris Plains, NJ, USA) and adjusting the pH of the medium to 7.0 by adding 1 N of NaOH solution. […]

[2] = test system: Aspergillus niger ATCC 16404; test: MIC by broth microdilution (RPMI 1640); settings: ATCC16404
Method: as §1, §2, §3, §4

[3] = test system: Klebsiella pneumoniae ATCC 13883; test: MIC by broth microdilution; settings: ATCC13883
Method: as §1, §2, §3, §4

Enterococcus faecium 569 = test: MIC by broth microdilution; settings: for MIC: Enterococcus faecium 569; for activity against Enterococcus faecium 569: in words, strain resistant to cefuroxime, clindamycin, gentamycin, vancomycin and doxycycline
Method: as §1, §2, §3, §4

[4] = test system: Escherichia coli ATCC 25922; test: MIC by broth microdilution; settings: ATCC25922
Method: as §1, §2, §3, §4

[5] = test system: Staphylococcus aureus ATCC 25923; test: MIC by broth microdilution; settings: ATCC25923
Method: as §1, §2, §3, §4

[6] = test system: Staphylococcus aureus ATCC 700699; test: MIC by broth microdilution; settings: ATCC700699
Method: as §1, §2, §3, §4

Staphylococcus aureus 10 = test: MIC by broth microdilution
Method: as §1, §2, §3, §4

[7] = test system: Staphylococcus aureus 100KC; test: MIC by broth microdilution; settings: Staphylococcus aureus 100KC (MRSA)
Method: as §1, §2, §3, §4

[8] = test system: Salmonella cholerasuis ATCC 14028; test: MIC by broth microdilution; settings: ATCC14028
Method: as §1, §2, §3, §4

[9] = test system: Staphylococcus haemoliticus 585; test: MIC by broth microdilution; settings: for MIC: Staphylococcus haemoliticus 585
Method: as §1, §2, §3, §4

[10] = test system: Pseudomonas aeruginosa ATCC 27853; test: MIC by broth microdilution; settings: ATCC27853
Method: as §1, §2, §3, §4

Staphylococcus aureus 5 = test: MIC by broth microdilution; settings: Staphylococcus aureus 5 (MRSA)
Method: as §1, §2, §3, §4

[11] = test system: Staphylococcus aureus ATCC 3798; test: MIC by broth microdilution; settings: ATCC3798
Method: as §1, §2, §3, §4

[12] = test system: Proteus vulgaris ATCC 13315; test: MIC by broth microdilution; settings: ATCC13315
Method: as §1, §2, §3, §4

[13] = test system: Staphylococcus epidermidis 533; test: MIC by broth microdilution
Method: as §1, §2, §3, §4

[14] = test system: yeast (Candida albicans) and fungi (Aspergillus niger); test: Antifungal activity; settings: for antifungal activity: in words
Method: as §1
The minimum inhibitory concentrations (MIC) for Gram-positive and Gram-negative bacteria were determined by two-fold serial microdilution method in a cation-adjusted Müller–Hinton medium for bacteria and in a liquid culture medium RPMI 1640 with L-glutamine without sodium bicarbonate for fungi in accordance with the requirements of the Institute of Clinical and Laboratory Standards (CLSI/NCCLS). The antibacterial antibiotic levofloxacin and the antifungal antibiotic amphotericin B from Sigma-Aldrich were used as reference drugs.

Row | Compound | MIC [1] | MIC [2] | MIC [3] | MIC (Enterococcus faecium 569) | activity against Enterococcus faecium 569 (Enterococcus faecium 569) | MIC [4] | MIC [5] | MIC [6] | MIC (Staphylococcus aureus 10) | MIC [7] | MIC [8] | MIC [9] | MIC [10] | MIC (Staphylococcus aureus 5) | MIC [11] | MIC [12] | MIC [13] | antifungal activity [14] | activity against Staphylococcus haemoliticus 585 ([9]; in words, clinical isolate resistant to penicillins, aminoglycosides and erythromycin) | MIC ([14]; Candida albicans and Aspergillus niger)
1 | OCCCCCn1cc([C+](c2cn(CCCCCO)c3ccccc23)c2cn(CCCCCO)c3ccccc23)c2ccccc21.[Cl-] [Compound 1, tris(1-(5-Hydroxypentyl)-1H-indol-3-yl) methylium chloride] | > 64 µg/mL | > 64 µg/mL | 2 µg/mL | 8 µg/mL | reduced activity | 8 µg/mL | 2 µg/mL | 2 µg/mL | 1 µg/mL | 2 µg/mL | > 64 µg/mL | 4 µg/mL | > 64 µg/mL | 4 µg/mL | 2 µg/mL | 64 µg/mL | 1 µg/mL | no antifungal activity at all |  | 
2 | CCCn1cc([C+](c2cn(CCC)c3ccccc23)c2cn(C3=C(N)C(=O)NC3=O)c3ccccc23)c2ccccc21.[Cl-] [Compound 2, (1-(4-Amino-2,5-dioxo-2,5-dihydro-1H-pyrrol-3-yl)-1H-indol-3-yl)bis(1-propyl-1H-indol-3-yl) methylium chloride] | 12 µg/mL | 8 µg/mL | > 64 µg/mL | 8 µg/mL |  | > 64 µg/mL | 0.5 µg/mL | 0.5 µg/mL | 0.5 µg/mL | 0.5 µg/mL | > 64 µg/mL | 2 µg/mL | 32 µg/mL | 0.25 µg/mL | 0.25 µg/mL | 16 µg/mL | 0.5 µg/mL | low antifungal activity |  | 
3 | CCCn1cc([C+](c2cn(CCC)c3ccccc23)c2cn(C3=C(N(C)C)C(=O)NC3=O)c3ccccc23)c2ccccc21 [Compound 3, 1-(4-Dimethylamino-2,5-dioxo-2,5-dihydro-1H-pyrrol-3-yl) -1H-indol-3-yl) bis(1-propyl-1H-indol-3-yl) methylium chloride] | 2 µg/mL | 2 µg/mL | > 64 µg/mL | > 64 µg/mL | inactive | 16 µg/mL | 0.13 µg/mL | 0.13 µg/mL | 0.25 µg/mL | 0.13 µg/mL | > 64 µg/mL | > 64 µg/mL | 16 µg/mL | 0.5 µg/mL | 0.13 µg/mL | > 64 µg/mL | 0.5 µg/mL |  | not active | 2 µg/mL
4 | C[C@H]1COc2c(N3CCN(C)CC3)c(F)cc3c(=O)c(C(=O)O)cn1c23 [Levofloxacin, levofloxacin, reference compound] |  |  | 0.25 µg/mL (≈ 0.692 µM) | 1 µg/mL (≈ 2.77 µM) |  | 0.06 µg/mL (≈ 0.166 µM) | 0.25 µg/mL (≈ 0.692 µM) | 16 µg/mL (≈ 44.3 µM) | 0.13 µg/mL (≈ 0.36 µM) | 32 µg/mL (≈ 88.6 µM) | 0.13 µg/mL (≈ 0.36 µM) | 0.5 µg/mL (≈ 1.38 µM) | 1 µg/mL (≈ 2.77 µM) | 0.25 µg/mL (≈ 0.692 µM) | 32 µg/mL (≈ 88.6 µM) | 4 µg/mL (≈ 11.1 µM) | 0.5 µg/mL (≈ 1.38 µM) |  |  | 
